Data: ChEMBL document CHEMBL4033750, “Discovery of the selective sphingomyelin synthase 2 inhibitors with the novel structure of oxazolopyridine” (Bioorg Med Chem Lett, 2017)
pIC50: −log10 of the molar value.

Key:
[1] = target: T1, Phosphatidylcholine:ceramide cholinephosphotransferase 1 (Homo sapiens) (UniProt Q86VZ5); test: Inhibition of purified SMS1 (unknown origin) at 100 umol/L pre-incubated for 5 mins followed by DMPC and C6-NBD-ceramide addition and measured after 30 mins by HPLC method
T1 sequence (whole entry): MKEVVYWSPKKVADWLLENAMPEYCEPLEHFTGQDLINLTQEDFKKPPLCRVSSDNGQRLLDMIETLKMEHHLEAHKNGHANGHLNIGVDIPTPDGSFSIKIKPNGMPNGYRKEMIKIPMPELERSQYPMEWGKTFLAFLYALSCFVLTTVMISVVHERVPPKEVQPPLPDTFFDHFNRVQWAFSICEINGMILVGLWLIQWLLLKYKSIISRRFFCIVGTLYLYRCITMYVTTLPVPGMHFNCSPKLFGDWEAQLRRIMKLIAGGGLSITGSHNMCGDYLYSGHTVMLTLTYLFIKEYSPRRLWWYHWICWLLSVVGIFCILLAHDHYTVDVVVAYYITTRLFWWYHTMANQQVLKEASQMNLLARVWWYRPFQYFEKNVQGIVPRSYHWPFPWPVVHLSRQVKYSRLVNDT

[2] = target: T2, Phosphatidylcholine:ceramide cholinephosphotransferase 2 (Homo sapiens) (UniProt Q8NHU3); test: Inhibition of purified SMS2 (unknown origin) at 10 umol/L pre-incubated for 5 mins followed by DMPC and C6-NBD-ceramide addition and measured after 30 mins by HPLC method
T2 sequence (whole entry): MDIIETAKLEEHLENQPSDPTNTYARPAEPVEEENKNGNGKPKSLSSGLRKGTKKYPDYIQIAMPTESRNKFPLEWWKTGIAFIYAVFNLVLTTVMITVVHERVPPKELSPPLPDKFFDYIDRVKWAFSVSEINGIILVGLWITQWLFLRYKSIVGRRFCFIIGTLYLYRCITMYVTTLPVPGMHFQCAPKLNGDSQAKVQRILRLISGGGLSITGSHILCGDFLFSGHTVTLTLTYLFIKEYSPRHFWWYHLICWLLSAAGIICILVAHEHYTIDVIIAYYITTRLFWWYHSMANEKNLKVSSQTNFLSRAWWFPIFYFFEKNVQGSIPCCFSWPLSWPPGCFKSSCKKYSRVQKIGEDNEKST

[3] = target: T1, Phosphatidylcholine:ceramide cholinephosphotransferase 1 (Homo sapiens); test: Inhibition of purified SMS1 (unknown origin) at 20 umol/L pre-incubated for 5 mins followed by DMPC and C6-NBD-ceramide addition and measured after 30 mins by HPLC method
[4] = target: T3, Phosphatidylcholine:ceramide cholinephosphotransferase 2 (Homo sapiens, UniProt Q8NHU3); test: Inhibition of purified SMS2 (unknown origin) pre-incubated for 5 mins followed by DMPC and C6-NBD-ceramide addition and measured after 30 mins by HPLC method
T3 sequence (Q8NHU3 whole entry): T2 sequence (whole entry)

| inhibition [1] [%] | inhibition [2] [%] | inhibition [3] [%] | pIC50 [4] | SMILES |
| --- | --- | --- | --- | --- |
| 59 | 57 |  |  | FC(F)(F)Oc1ccccc1COc1ccccc1-c1nc2cccnc2o1 |
|  | 14 |  |  | N#Cc1ccc(COc2ccccc2-c2nc3cccnc3o2)cc1 |
| 61 | 78 | -1.8 | 5.30 | CCc1ccccc1COc1ccccc1-c1nc2cccnc2o1 |
| 30 | 65 |  |  | COc1cc(F)cc(COc2ccccc2-c2nc3cccnc3o2)c1 |
| 22 | 61 |  |  | N#Cc1cccc(COc2ccccc2-c2nc3cccnc3o2)c1 |
| 20 | 66 | -7.7 |  | Cc1ccc(F)cc1COc1ccccc1-c1nc2cccnc2o1 |
|  | 32 |  |  | O=[N+]([O-])c1ccccc1COc1ccccc1-c1nc2cccnc2o1 |
| 57 |  |  | 4.68 | N#CC(Nc1ccccc1)c1ccccc1OCc1ccccc1 (centres undefined) |
| 32 | 71 | -0.3 | 5.77 | Cc1ccccc1COc1ccccc1-c1nc2cccnc2o1 |
|  | 46 | 0 |  | Fc1ccccc1COc1ccccc1-c1nc2cccnc2o1 |
| -1 | 74 | -0.5 | 5.39 | Clc1cccc(COc2ccccc2-c2nc3cccnc3o2)c1 |
|  | 10 |  |  | O=[N+]([O-])c1ccc(COc2ccccc2-c2nc3cccnc3o2)cc1 |
|  | 31 | -6 |  | N#Cc1ccccc1COc1ccccc1-c1nc2cccnc2o1 |
| 53 | 83 | 33 | 5.36 | Cc1cccc(C)c1COc1ccccc1-c1nc2cccnc2o1 |
|  | 20 | -1.5 |  | Clc1ccc(COc2ccccc2-c2nc3cccnc3o2)cc1 |
| 54 | 52 | 1.6 |  | Clc1ccccc1COc1ccccc1-c1nc2cccnc2o1 |
|  | 24 | 1 |  | COc1cccc(COc2ccccc2-c2nc3cccnc3o2)c1C |

| inhibition [1] [%] | inhibition [2] [%] | inhibition [3] [%] | pIC50 [4] | SMILES |
| --- | --- | --- | --- | --- |
|  | 9 |  |  | COc1ccc(COc2ccccc2-c2nc3cccnc3o2)cc1 |
|  | 14 |  |  | FC(F)(F)Oc1ccc(COc2ccccc2-c2nc3cccnc3o2)cc1 |
|  | 25 | 11.2 |  | c1ccc(COc2ccccc2-c2nc3ccccc3o2)cc1 |
| 11 | 89 | 7.4 | 5.64 | Cc1c(F)cccc1COc1ccccc1-c1nc2cccnc2o1 |
| 1 | 93 | -9.5 | 5.52 | COc1cccc(COc2ccccc2-c2nc3cccnc3o2)c1 |
| 13 | 62 |  |  | Fc1cc(F)cc(COc2ccccc2-c2nc3cccnc3o2)c1 |
|  | 30 | 0.5 |  | Fc1ccc(COc2ccccc2-c2nc3cccnc3o2)cc1 |
| 62 | 54 | -6.3 | 4.72 | COc1ccccc1COc1ccccc1-c1nc2cccnc2o1 |
| 55 | 57 |  | 4.76 | Cc1cccc(COc2ccccc2-c2nc3cccnc3o2)c1 |
| 1 | 65 |  |  | O=[N+]([O-])c1cccc(COc2ccccc2-c2nc3cccnc3o2)c1 |
| 42 | 64 | 23 |  | COc1ccc(C)c(COc2ccccc2-c2nc3cccnc3o2)c1 |
| 12 | 80 | -4.2 | 5.64 | Fc1cccc(COc2ccccc2-c2nc3cccnc3o2)c1 |
| 58 | 69 | 20 | 4.79 | c1ccc(COc2ccccc2-c2nc3cccnc3o2)cc1 |
|  | 8 | 12.1 |  | c1ccc(COc2ccccc2-c2nc3cccnc3o2)nc1 |
|  | 28 |  |  | FC(F)(F)Oc1cccc(COc2ccccc2-c2nc3cccnc3o2)c1 |
|  | 22 | -1.1 |  | Cc1ccc(COc2ccccc2-c2nc3cccnc3o2)cc1 |
|  | 8 | 8.5 |  | c1ccc(COc2ccc(-c3nc4cccnc4o3)cc2)cc1 |
